This passage reports IC50 and Ratio IC50 results from ChEMBL document CHEMBL1681645, “Pyrrolo[1,2-f]triazines as JAK2 inhibitors: achieving potency and selectivity for JAK2 over JAK3” (Bioorg Med Chem Lett, 2011).

SMILES strings stand for the structures.

For test [1], the target named is Tyrosine-protein kinase JAK2 (Homo sapiens, UniProt O60674). The experiment in a line: Inhibition of JAK2 after 60 mins.
A short description of test [2]: Antiproliferative activity against human SET2 cells assessed as inhibition of [3H]thymidine incorporation after 72 hrs. It counts as functional, cell-based. As to conditions: SET-2. On the technique in general: Dividing cells build labelled thymidine or BrdU into new DNA.
Test [3] deals with T1, Tyrosine-protein kinase JAK3 (Homo sapiens, UniProt P52333).
T1 sequence (P52333 whole entry): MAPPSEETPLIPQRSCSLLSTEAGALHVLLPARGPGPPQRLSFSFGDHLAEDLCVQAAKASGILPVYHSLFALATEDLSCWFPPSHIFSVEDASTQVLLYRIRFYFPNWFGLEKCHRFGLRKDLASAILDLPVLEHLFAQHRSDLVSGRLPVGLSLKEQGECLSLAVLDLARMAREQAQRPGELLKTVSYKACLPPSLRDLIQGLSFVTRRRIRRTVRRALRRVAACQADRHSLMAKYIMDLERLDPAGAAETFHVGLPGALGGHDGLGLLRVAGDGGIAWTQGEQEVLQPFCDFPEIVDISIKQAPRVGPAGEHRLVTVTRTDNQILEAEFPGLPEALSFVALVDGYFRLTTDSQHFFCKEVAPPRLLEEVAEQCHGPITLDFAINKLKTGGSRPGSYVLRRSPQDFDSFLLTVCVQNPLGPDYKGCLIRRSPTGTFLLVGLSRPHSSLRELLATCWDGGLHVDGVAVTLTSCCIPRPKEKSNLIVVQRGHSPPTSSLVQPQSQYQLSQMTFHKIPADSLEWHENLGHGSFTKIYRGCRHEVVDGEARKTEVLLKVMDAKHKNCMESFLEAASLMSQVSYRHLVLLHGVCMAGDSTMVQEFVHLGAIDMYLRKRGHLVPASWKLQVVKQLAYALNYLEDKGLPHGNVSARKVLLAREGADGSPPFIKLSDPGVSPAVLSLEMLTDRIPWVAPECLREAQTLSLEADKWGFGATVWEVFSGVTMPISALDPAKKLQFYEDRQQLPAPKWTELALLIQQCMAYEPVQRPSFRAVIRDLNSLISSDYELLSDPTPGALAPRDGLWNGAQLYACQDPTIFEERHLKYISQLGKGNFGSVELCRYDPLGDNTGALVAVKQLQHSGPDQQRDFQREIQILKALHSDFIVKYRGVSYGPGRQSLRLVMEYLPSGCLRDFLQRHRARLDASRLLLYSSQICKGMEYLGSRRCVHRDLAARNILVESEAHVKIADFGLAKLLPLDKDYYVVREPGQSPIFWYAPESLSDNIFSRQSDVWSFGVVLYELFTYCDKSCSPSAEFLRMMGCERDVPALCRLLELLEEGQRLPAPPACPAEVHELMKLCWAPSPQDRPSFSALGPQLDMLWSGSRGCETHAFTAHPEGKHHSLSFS
The experiment in a line: Inhibition of JAK3 after 60 mins.

A short description of test [4]: Selectivity ratio of IC50 for JAK3 over IC50 for JAK2.
A short description of test [5]: Selectivity ratio of IC50 for JAK1 over IC50 for JAK2.

Sequence of Tyrosine-protein kinase JAK2 (O60674 whole entry): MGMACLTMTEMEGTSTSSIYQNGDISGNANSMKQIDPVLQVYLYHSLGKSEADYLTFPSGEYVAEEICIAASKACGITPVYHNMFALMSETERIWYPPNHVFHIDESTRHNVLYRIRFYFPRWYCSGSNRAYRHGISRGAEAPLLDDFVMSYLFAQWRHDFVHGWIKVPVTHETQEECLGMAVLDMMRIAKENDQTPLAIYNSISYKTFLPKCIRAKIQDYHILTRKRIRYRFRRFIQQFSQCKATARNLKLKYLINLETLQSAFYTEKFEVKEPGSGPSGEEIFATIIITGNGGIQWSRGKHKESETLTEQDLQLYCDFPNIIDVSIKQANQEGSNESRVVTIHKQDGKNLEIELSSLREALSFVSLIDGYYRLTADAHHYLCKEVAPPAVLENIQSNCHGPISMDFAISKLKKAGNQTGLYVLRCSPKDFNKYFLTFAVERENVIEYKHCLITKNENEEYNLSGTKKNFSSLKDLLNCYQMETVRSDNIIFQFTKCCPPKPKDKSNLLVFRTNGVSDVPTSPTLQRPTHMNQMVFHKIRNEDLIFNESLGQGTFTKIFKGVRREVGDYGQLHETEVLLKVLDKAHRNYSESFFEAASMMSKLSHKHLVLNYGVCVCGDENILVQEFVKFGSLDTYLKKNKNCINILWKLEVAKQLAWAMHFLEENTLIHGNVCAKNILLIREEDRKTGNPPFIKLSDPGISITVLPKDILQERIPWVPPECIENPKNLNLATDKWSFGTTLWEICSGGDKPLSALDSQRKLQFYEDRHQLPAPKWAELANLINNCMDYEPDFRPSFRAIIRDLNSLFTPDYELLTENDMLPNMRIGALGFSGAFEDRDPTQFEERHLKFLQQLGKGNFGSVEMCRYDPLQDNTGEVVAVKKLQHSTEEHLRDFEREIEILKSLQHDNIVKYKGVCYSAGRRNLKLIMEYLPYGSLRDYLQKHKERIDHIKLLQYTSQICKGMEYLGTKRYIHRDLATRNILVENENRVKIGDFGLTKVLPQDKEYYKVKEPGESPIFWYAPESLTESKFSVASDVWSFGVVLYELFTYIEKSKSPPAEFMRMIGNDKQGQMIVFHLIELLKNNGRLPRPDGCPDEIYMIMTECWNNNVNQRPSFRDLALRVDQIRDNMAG

The term IC50 denotes the midpoint of a concentration-inhibition curve. Consider `Cc1ccc(C(=O)N2CCN(c3nc(Nc4cc(C)[nH]n4)c4cccn4n3)CC2)cc1`, for which the IC50 in test [1] came out at 4.5 nM; in test [2] it was 59 nM.
`Cc1nnc(Nc2nc(N3CCN(C(=O)Cc4ccccc4)CC3)nn3cccc23)s1`: the IC50 was 14000 nM in test [1], 18000 nM in test [3] and 690 nM in test [2]. For the same molecule, in test [4], the Ratio IC50 came to 1.3.
With `Cc1cc(Nc2nc(N3CCN(C(=O)Cc4ccccc4)CC3)nn3cccc23)n[nH]1`, the half-inhibitory concentration (IC50) came out at 2.8 nM in test [1] and 370 nM in test [2].
Consider `Cc1cc(Nc2nc(N3CCN(C(=O)N(C)C)CC3)nn3cccc23)[nH]n1`, for which, in test [1], half-maximal inhibition (IC50) required 9.3 nM.
Regarding `Cc1cc(Nc2nc(N3CCN(C(=O)N(C)C)CC3)nn3cccc23)n[nH]1`, the Ratio IC50 in test [4] came out at 11; in test [5], 5.
For `CC1(c2cc(Nc3nc(N4CCN(C(=O)Cc5ccccc5)CC4)nn4cccc34)n[nH]2)CC1`, the figures for the IC50 in test [1] and in test [2] were 22 nM and 980 nM, respectively.
The corresponding values for `Cc1cc(Nc2nc(N3CCN(C(=O)c4ccccc4S(C)(=O)=O)CC3)nn3cccc23)n[nH]1` are 1.1 nM and 190 nM.
For `Cc1cc(Nc2nc(N3CCN(C(=O)Cc4c(F)cc(Cl)cc4F)CC3)nn3cccc23)n[nH]1`, the values for the concentration for half-maximal inhibition (IC50) in test [1] and in test [2] were 1 nM and 80 nM, respectively. Also, the Ratio IC50 in test [4] was determined as 67; in test [5] it was 3.8.
Regarding `Cc1cc(Nc2nc(N3CCN(C(=O)c4ccccc4)CC3)nn3cccc23)n[nH]1`, the IC50 in test [1] stood at 2.2 nM; in test [2] it was 62 nM.
The molecule `O=C(Cc1ccccc1)N1CCN(c2nc(Nc3ccccn3)c3cccn3n2)CC1` displayed a half-maximal inhibitory concentration (IC50) in test [1] of 190 nM. In addition, the Ratio IC50 was determined as 41 in test [4] and 11 in test [5].
`CCC(=O)N1CCN(c2nc(Nc3cc(C)[nH]n3)c3cccn3n2)CC1`: in test [1], the IC50 is 22 nM. For the same molecule, the Ratio IC50 in test [4] came to 5.
Regarding `Cc1cc(Nc2nc(N3CCN(C(=O)c4ccccc4C)CC3)nn3cccc23)n[nH]1`, the IC50 in test [1] is 3 nM; in test [2], 160 nM.
Turning to `Cc1cc(Nc2nc(N3CCN(C(=O)Cc4ccccc4F)CC3)nn3cccc23)n[nH]1`, the values for the IC50 in test [1] and in test [2] were 4.6 nM and 170 nM, respectively.
On to `O=C(NC1CC1)c1cc(Nc2nc(N3CCN(C(=O)Cc4ccccc4)CC3)nn3cccc23)n[nH]1`, for which the results for the half-maximal inhibitory concentration (IC50) in test [1] and in test [2] were 2700 nM and 1400 nM, respectively.
Turning to `Cc1cc(Nc2nc(N3CCN(C(=O)c4ccc(C#N)cc4)CC3)nn3cccc23)n[nH]1`, the IC50 in test [1] came to 4.8 nM; in test [2], 6.2 nM.
The corresponding values for `Cc1cc(Nc2nc(N3CCN(C(=O)c4ccccc4Br)CC3)nn3cccc23)n[nH]1` are 2.1 nM and 180 nM.
For `O=C(Cc1ccccc1)N1CCN(c2nc(Nc3nccs3)c3cccn3n2)CC1`, the figures for the IC50 in test [1] and in test [2] were 59 nM and 1200 nM, respectively. For the same molecule, the results for the Ratio IC50 in test [4] and in test [5] were 37 and 2.6, respectively.
Consider `Cc1cc(Nc2nc(N3CCN(C(=O)c4ccccc4C#N)CC3)nn3cccc23)n[nH]1`, for which the IC50 in test [1] worked out at 6 nM; in test [2], 140 nM.
For `Cc1cc(Nc2nc(N3CCN(C(=O)Cc4ccc(F)cc4F)CC3)nn3cccc23)n[nH]1`, in that order: 2.4 nM and 54 nM.
Consider `Cc1cc(Nc2nc(N3CCN(C(=O)Cc4ccc(Cl)cc4)CC3)nn3cccc23)n[nH]1`, for which the half-inhibitory concentration (IC50) in test [1] came out at 0.6 nM; in test [2], 590 nM.
For `Cc1cc(Nc2nc(N3CCNCC3)nn3cccc23)n[nH]1`, the values for the Ratio IC50 in test [4] and in test [5] were 15 and 16, respectively.
Regarding `COc1ccc(CC(=O)N2CCN(c3nc(Nc4cc(C)[nH]n4)c4cccn4n3)CC2)cc1`, the IC50 in test [1] is 1.2 nM; in test [2], 630 nM.
For `Cc1cc(Nc2nc(N3CCN(C(=O)CCc4ccccc4)CC3)nn3cccc23)n[nH]1`, the IC50 in test [1] was found to be 2 nM; in test [2], 76 nM.
For the molecule `Cc1cc(Nc2nc(N3CCN(C(=O)Cc4ccccc4C)CC3)nn3cccc23)n[nH]1`, the IC50 turned out to be 5.3 nM in test [1] and 120 nM in test [2].
Take `Cc1ccc(CC(=O)N2CCN(c3nc(Nc4cc(C)[nH]n4)c4cccn4n3)CC2)cc1`: the values for the IC50 in test [1] and in test [2] were 1.1 nM and 310 nM, respectively.
For `COc1cc(F)c(CC(=O)N2CCN(c3nc(Nc4cc(C)n[nH]4)c4cccn4n3)CC2)c(F)c1`, the concentration for half-maximal inhibition (IC50) in test [2] came to 110 nM.
In the case of `Cc1cc(Nc2nc(N3CCN(C(=O)Cc4ccc(F)cc4)CC3)nn3cccc23)n[nH]1`, the IC50 is 0.9 nM in test [1] and 54 nM in test [2]. The Ratio IC50 in test [4] was 25; in test [5], 6.5.
On to `COc1ccccc1C(=O)N1CCN(c2nc(Nc3cc(C)[nH]n3)c3cccn3n2)CC1`, for which the IC50 came to 3.5 nM in test [1] and 90 nM in test [2].
`Cc1cc(Nc2nc(N3CCN(C(=O)c4ccccc4Cl)CC3)nn3cccc23)n[nH]1`: the IC50 in test [1] was 7.3 nM; in test [2] it was 71 nM.
For `CC(C)n1cnc(Nc2nc(N3CCN(C(=O)Cc4ccccc4)CC3)nn3cccc23)c1`, the IC50 worked out at 110 nM in test [1] and 670 nM in test [2].
